Assay results published in US20020137162A1, “Antisense oligonucleotide inhibition of specific histone deacetylase isoforms” (priority 2000, published 2002).
d = 2'-deoxy (DNA); m = 2'-O-methyl

Experiments:
[1] = test system: human HDAC-3; experiment: Antisense ODN screen, HDAC-3 RNA, T24 cells; assay type: cell-based; details: 100 nM, 24 hours, Northern blot
Description: Twenty-one phosphorothioate ODNs containing sequences complementary to the 5′ or 3′ UTR of the human HDAC-3 gene (GenBank Accession No. AF039703) were screened as above. […] HDAC-3 MM oligonucleotide was created as a control; compared to the antisense oligonucleotide, it contains a 6-base mismatch.
(§1) Briefly, human A549 and/or T24 human bladder carcinoma cells were seeded in 10 cm tissue culture dishes one day prior to oligonucleotide treatment. The cell lines were obtained from the American Type Culture Collection (ATCC) (Manassas, Va.) and were grown under the recommended culture conditions. Before the addition of the oligonucleotides, cells were washed with PBS (phosphate buffered saline). Next, lipofectin transfection reagent (GIBCO BRL Mississauga, Ontario, Calif.), at a concentration of 6.25 μg/ml, was added to serum free OPTIMEM medium (GIBCO BRL, Rockville, Md.), which was then added to the cells. The oligonucleotides to be screened were then added directly to the cells (i.e., one oligonucleotide per plate of cells). Mismatched oligonucleotides were used as controls. The same concentration of oligonucleotide (e.g., 50 nM) was used per plate of cells for each oligonucleotide tested.
(§2) Cells were harvested, and total RNAs were analyzed by Northern blot analysis. Briefly, total RNA was extracted using RNeasy miniprep columns (QIAGEN). […]

[2] = test system: HDAC-3 protein; experiment: Western blot of HDAC isotype protein expression in A549 cells, HDAC-3; assay type: cell-based, human; details: 50 nM, 48 hours
Description: (§3) OSDN treatment conditions were as previously described.
(§4) Cells were lysed in buffer containing 1% Triton X-100, 0.5% sodium deoxycholate, 5 mM EDTA, 25 mM Tris-HC1, pH 7.5, plus protease inhibitors. Total protein was quantified by the protein assay reagent from Bio-Rad (Hercules, Calif.). 100 ug of total protein was analyzed by SDS-PAGE. Next, total protein was transferred onto a PVDF membrane and probed with various HDAC-specific primary antibodies. Rabbit anti-HDAC-1 (H-51), anti-HDAC-2 (H-54) antibodies (Santa Cruz Biotechnologies, Santa Cruz, Calif.) were used at 1:500 dilution. Rabbit anti-HDAC-3 antibody (Sigma, St. Louis, Mo.) was used at a dilution of 1:1000. Anti-HDAC-4 antibody was prepared as previously described (Wang, S. H. et al., (1999) Mol. Cell. Biol. 19:7816-27), and was used at a dilution of 1:1000. Anti-HDAC-6 antibody was raised by immunizing rabbits with a GST fusion protein containing a fragment of HDAC-6 protein (amino acid #990 to #1216, GenBank Accession No. AAD29048). Rabbit antiserum was tested and found only to react specifically to the human HDAC-6 isoform. HDAC-6 antiserum was used at 1:500 dilution in Western blots to detect HDAC-6 in total cell lysates. Horse Radish Peroxidase conjugated secondary antibody was used at a dilution of 1:5000 to detect primary antibody binding. […]

[3] = test system: A549; experiment: Cell growth inhibition, trypan blue cell count; assay type: cell-based, human; details: A549 cancer cells, 50 nM, 72 hours
Description: (§5) In order to determine the effect of HDAC OSDNs on cell growth and cell death through apoptosis, A549 or T24 cells, MDAmb231 cells, and HMEC cells (ATCC, Manassas, Va.) were treated with HDAC OSDNs as previously described.
(§6) Cells were harvested and cell numbers counted by trypan blue exclusion using a hemocytometer. Percentage of inhibition was calculated as (100—AS cell numbers/control cell numbers) %.

[4] = test system: HMEC; experiment: Cell growth inhibition, trypan blue cell count; assay type: cell-based, human; details: HMEC normal cells, 50 nM, 72 hours
Description: as §5, §6

[5] = test system: MDAmb231; experiment: Cell growth inhibition, trypan blue cell count; assay type: cell-based, human; details: MDAmb231 cancer cells, 50 nM, 72 hours
Description: as §5, §6

[6] = test system: T24; experiment: Cell growth inhibition, trypan blue cell count; assay type: cell-based, human; details: T24 cancer cells, 50 nM, 72 hours
Description: as §5, §6

[7] = test system: A549; experiment: Apoptosis, Cell Death Detection ELISA; assay type: cell-based, human; details: fold over non-specific background, TSA at 100 ng/ml
Description: as §5
(§7) For the apoptosis study, cells were analyzed using the Cell Death Detection ELISA ^PLUSkit (Roche Diagnostic GmBH, Mannheim, Germany) according to the manufacturer's directions. Typically, 10,000 cells were plated in 96-well tissue culture dishes for 2 hours before harvest and lysis. Each sample was analyzed in duplicate. ELISA reading was done using a MR700 plate reader (DYNEX Technology, Ashford, Middlesex, England) at 410 nm. The reference was set at 490 nm.

[8] = test system: HMEC; experiment: Apoptosis, Cell Death Detection ELISA; assay type: cell-based, human; details: fold over non-specific background, TSA at 100 ng/ml
Description: as §5, §7

[9] = test system: MDAmb231; experiment: Apoptosis, Cell Death Detection ELISA; assay type: cell-based, human; details: fold over non-specific background, TSA at 100 ng/ml
Description: as §5, §7

[10] = test system: T24; experiment: Apoptosis, Cell Death Detection ELISA; assay type: cell-based, human; details: fold over non-specific background, TSA at 100 ng/ml
Description: as §5, §7

[11] = test system: human cancer cells; experiment: Cell growth and apoptosis, summary for cancer cells; assay type: cell-based
Description: as §5, §7, §6

[12] = test system: human HDAC-7; experiment: Antisense ODN screen, HDAC-7 RNA, T24 cells; assay type: cell-based; details: 100 nM, 24 hours, Northern blot
Description: Eighteen phosphorothioate ODNs containing sequences complementary to the 5′ or 3′ untranslated regions of the human HDAC-7 gene (GenBank Accession No. AF239243) were screened as above.
as §1
(§8) Cells were harvested, and total RNAs were analyzed by Northern blot analysis. Briefly, total RNA was extracted using RNeasy miniprep columns (QIAGEN). Ten to twenty gg of total RNA was run on a formaldehyde-containing 1% agarose gel with 0.5 M sodium phosphate (pH 7.0) as the buffer system. […]

[13] = test system: human HDAC-5; experiment: Antisense ODN screen, HDAC-5 RNA, T24 cells; assay type: cell-based; details: 100 nM, 24 hours, Northern blot
Description: Thirteen phosphorothioate ODNs containing sequences complementary to the 5′ or 3′ untranslated regions of the human HDAC-5 gene (GenBank Accession No. AF039691) were screened as above.
as §1, §8

[14] = test system: human HDAC-1; experiment: Antisense ODN screen, HDAC-1 RNA expression by Northern blot in T24 cells; assay type: cell-based; details: 100 nM, 24 hours
Description: as §1
Cells were harvested, and total RNAs were analyzed by Northern blot analysis. Briefly, total RNA was extracted using RNeasy miniprep columns (QIAGEN). Ten to twenty gg of total RNA was run on a formaldehyde-containing 1% agarose gel with 0.5 M sodium phosphate (pH 7.0) as the buffer system. RNAs were then transferred to nitrocellulose membranes and hybridized with the indicated radiolabeled DNA probes. Autoradiography was performed using conventional procedures.

[15] = test system: cyclin B1; experiment: Western blot of cyclin B1 in A549 cells; assay type: cell-based, human; details: 48 hours
Description: (§9) Human cancer A549 cells were treated with AS1, AS2 or MM oligo directed human HDAC1 for 48 hours. Total cell lysates were harvested and analyzed by Western blot using antibodies against human HDAC1, cyclin Bl, cyclin A and actin (all from Santa Cruz Biotechnology, Inc., Santa Cruz, Calif.).

[16] = test system: cyclin A; experiment: Western blot of cyclin A in A549 cells; assay type: cell-based, human; details: 48 hours
Description: as §9

[17] = test system: human HDAC-2; experiment: Antisense ODN screen, HDAC-2 RNA, T24 cells; assay type: cell-based; details: 100 nM, 24 hours, Northern blot
Description: Twenty-four phosphorothioate ODNs containing sequences complementary to the 5′ or 3′ UTR of the human HDAC-2 gene (GenBank Accession No. U31814) were screened as above. […] HDAC-2 MM was created as a control; compared to the antisense oligo, it contains a 7-base mismatch.
as §1, §2

[18] = test system: HDAC-2 protein; experiment: Western blot of HDAC isotype protein expression in A549 cells, HDAC-2; assay type: cell-based, human; details: 50 nM, 48 hours
Description: as §3, §4

[19] = test system: A549 cells; experiment: Growth in soft agar, colony count; assay type: cell-based, human; details: colonies counted after three weeks
Description: 1.3 g granulated agar (DIDFCO) was added to 100 ml deionized water and boiled in a microwave to sterilize. The boiled agar was held at 55 C until further use. Iscove's Modified Dulbecco×s Medium (GIBCO/BRL), 100× Penicillin-Streptomycin-Glutamine (GIBCO/BRL) and fetal bovine serum (medicorp) were pre-warmed at 37 C. To 50 ml sterile tubes was added 9 ml Isove's medium, 2 ml fetal bovine serum and 0.2 ml 100× Pen-Strep-Gln. Then 9 ml 55 C 1.3% agar was added to each tube. The tube contents were mixed immediately, avoiding air bubbles, and 2.5 ml of the mixture was poured into each sterile 6 cm petri dish to form a polymerized bottom layer. Dishes with polymerized bottom layers were then put in a CO2 incubator at 37 C until further use. In 50 ml sterile tubes were prewarmed at 37 C for each 4 cell lines/samples, 20 ml Iscove's medium, 0.4 ml 100× Pen-Strep-Gln and 8 ml fetal bovine serum. Cells were trypsinized and counted by trypan blue staining and 20,000 cells were aliquotted into a sterile 15 ml tube. To the tube was then added DMEM with low glucose (GIBCO/BRL)+10% fetal bovine serum+Pen-Strep-Gln to a final volume of 1 ml. To the prewarmed 37 C mix in the 50 ml tube was quickly added 8 ml 55 C 1.3% agar, which was then mixed well. […] Plates were wrapped up in foil paper and incubated in a CO2 incubator at 37° C. for three weeks, at which time colonies in agar are counted.

[20] = test system: human HDAC-4; experiment: Antisense ODN screen, HDAC-4 RNA, T24 cells; assay type: cell-based; details: 100 nM, 24 hours, Northern blot
Description: Seventeen phosphorothioate ODNs containing sequences complementary to the 5′ or 3′ UTR of the human HDAC-4 gene (GenBank Accession No. AB006626) were screened as above. […] HDAC-4 MM1 and MM2 oligonucleotides were created as controls; compared to the antisense oligonucleotides, they each contain a 6-base mismatch.
as §1, §2

[21] = test system: mammalian HDAC; details: Yoshida et al., J. Biol. Chem 265: 17174-17179 (1990); cited from earlier work
[22] = test system: murine erythroleukemia cells; details: Yoshida et al, Cancer Research 47: 3688-3691 (1987); cited from earlier work

## 5′-CGCTTTCCTTGTCATTGACA-3′ (chemistry not given here) [HDAC-3 AS]
[1]
  antisense activity to human HDAC-3: antisense activity
[2]
  HDAC-3 protein expression: specifically inhibits
[3]
  Growth Inhibition (AS vs. MM): − (“−”: no inhibition)
[4]
  Growth Inhibition (AS vs. MM): − (“−”: no inhibition)
[5]
  Growth Inhibition (AS vs. MM): − (“−”: no inhibition)
[6]
  Growth Inhibition (AS vs. MM): − (“−”: no inhibition)
[7]
  Apoptosis After 48 Hour Treatment: − (“−”: <= 2x fold over non-specific background)
[8]
  Apoptosis After 48 Hour Treatment: − (“−”: <= 2x fold over non-specific background)
[9]
  Apoptosis After 48 Hour Treatment: − (“−”: <= 2x fold over non-specific background)
[10]
  Apoptosis After 48 Hour Treatment: − (“−”: <= 2x fold over non-specific background)
[11]; Tables 3 and 4
  growth arrest and apoptosis of human cancer cells: no effect

## 5′-CTTCAGCCAGGATGCCCACA-3′ (sugars from the 5' end m4 d12 m4, all phosphorothioate, methylation of C and T or U not given here) [HDAC-7 AS]
[12]
  antisense activity to human HDAC-7: antisense activity

## 5′-CTTCGGTCTCACCTGCTTGG-3′ (sugars from the 5' end m4 d12 m4, all phosphorothioate, methylation of C and T or U not given here) [HDAC-5 AS]
[13]
  antisense activity to human HDAC-5: antisense activity

## 5′-GAAACGTGAGGGACTCAGCA-3′ (chemistry not given here) [HDAC-1 AS1]
[14]
  antisense activity to human HDAC-1 (HDAC-1 RNA expression): antisense activity
[7]
  Apoptosis After 48 Hour Treatment: + (“+”: 2-3X fold)
[8]
  Apoptosis After 48 Hour Treatment: − (“−”: <= 2x fold over non-specific background)
[10]
  Apoptosis After 48 Hour Treatment: − (“−”: <= 2x fold over non-specific background)
[15]
  expression of cyclin B1: repress expression
[16]
  expression of cyclin A: repress expression

## 5′-GCTGAGCTGTTCTGATTTGG-3′ (chemistry not given here) [HDAC-2 AS]
[17]
  antisense activity to human HDAC-2: antisense activity
[18]
  HDAC-2 protein expression: specifically inhibits
[5]
  Growth Inhibition (AS vs. MM): − (“−”: no inhibition)
[7]
  Apoptosis After 48 Hour Treatment: − (“−”: <= 2x fold over non-specific background)
[8]
  Apoptosis After 48 Hour Treatment: − (“−”: <= 2x fold over non-specific background)
[9]
  Apoptosis After 48 Hour Treatment: − (“−”: <= 2x fold over non-specific background)
[10]
  Apoptosis After 48 Hour Treatment: − (“−”: <= 2x fold over non-specific background)
[19]
  growth of A549 cells in soft agar: do not
[11]; summary of Table 3
  cancer cell growth inhibition: minimal effect

## 5′-GGAAGCCAGAGCTGGAGAGG-3′ (chemistry not given here) [HDAC-1 AS2]
[14]
  antisense activity to human HDAC-1 (HDAC-1 RNA expression): antisense activity
[15]
  expression of cyclin B1: repress expression
[16]
  expression of cyclin A: repress expression

## 5′-TACAGTCCATGCAACCTCCA-3′ [HDAC-4 AS2]
[20]
  antisense activity to human HDAC-4: antisense activity

## CC(/C=C/C(=O)NO)=C\[C@@H](C)C(=O)c1ccc(N(C)C)cc1 [TSA, (R)-Trichostatin A, reference compound]
[7]
  Apoptosis After 48 Hour Treatment: ++ (“++”: 3-5X fold)
[8]
  Apoptosis After 48 Hour Treatment: + (“+”: 2-3X fold)
[9]
  Apoptosis After 48 Hour Treatment: ++ (“++”: 3-5X fold)
[10]
  Apoptosis After 48 Hour Treatment: ++ (“++”: 3-5X fold)
[21]
  inhibition of mammalian HDAC: potent inhibitor
[22]
  induction of differentiation in murine erythroleukemia cells: potent inducer of differentiation
